# What was measured:
# [1] = tested on: S. aureus USA300 wild type; assay: microbe, parasite or virus in culture; assay type: cell-based
# Source text: Wild-type clinical S. aureus strains were obtained from the Network on Antibiotic Resistance in Staphylococcus aureus (NARSA/BEI) program. MRSA strain USA300 refers throughout this paper to strain NRS384 from NARSA/BEI. A global panel of 102 clinical S. aureus isolates was selected from the collection of International Health Management Associates, Inc. (IHMA; Schaumburg, IL), based on diversity of geographic locations, antibiotic resistance profiles, and sites of infection. Bacteria were cultured on cation-adjusted Mueller-Hinton agar (MHA) plates or in cation-adjusted Mueller-Hinton broth (MHB). Bacterial strains used in this study are listed in Table S5 in the supplemental material.
# (§1) MICs were determined according to the standard protocol from the Clinical and Laboratory Standards Institute ([23]). Briefly, S. aureus bacteria were harvested from regular MHA plates that had been cultured for ~20 h at 37°C. Serial dilutions of compound 103 were incubated with bacteria at approximately 10^6 CFU (CFU)/ml in MHB in round-bottom 96 well plates (Corning, Corning, NY) for 22 h at 37°C. MICs were determined by the lowest concentration of compound 103 showing absence of growth by visual inspection.
# [2] = tested on: S. aureus USA300 cro/cI (M1V) (GNE0117); assay: MIC, cro/cI(M1V) mutant; assay type: cell-based; details: for effect of cro/cI mutation on sensitivity to antibiotics: result in words, versus USA300 WT
# Protocol: as §1
# [3] = tested on: USA300 WT strain (strain GNE0023); assay: MIC, parental USA300 WT strain GNE0023; assay type: cell-based, S. aureus
# Protocol: as §1
# (§2) To generate mutations in SAUSA300_0351, _0352, and _0353 genes by homologous recombination, we transformed USA300 Δmcr using targeting constructs created in the vector pIMAY ([24]). To generate mutations in SAUSA300_0351, _0352, and _0353 genes in a cro/cI mutant background, we selected colonies from USA300 Δmcr cultured on plates containing fourfold the MIC of compound 103. Sequencing of PCR products of the cro/cI gene from resistant colonies yielded a clone with a Q16stop codon mutation in cro/cI (strain GNE0173). We further mutated SAUSA300_0351, _0352, and _0353 in this USA300 Δmcr cro/cI (Q16stop) clone to study the contributions of these three genes to cro/cI-mediated resistance.
# [4] = tested on: S. aureus USA300 SAUSA300_0352(K44A) mutant (strain GNE0174); assay: MIC, K44A mutant GNE0174; assay type: cell-based
# Protocol: as §1, §2
# [5] = S. aureus USA300 cro/cI (M1V) (GNE0117), Table S2
Compound,"MIC ([1]; Staphylococcus aureus, USA300) [µg/mL]",effect of cro/cI mutation on sensitivity to antibiotics [2],further results
CCC[C@@H]1C[C@@H](C(=O)N[C@@H]([C@H]2O[C@H](SC)[C@H](O)[C@@H](O)[C@H]2O)[C@H](C)Cl)N(C)C1 [Clindamycin],0.25,did not reduce sensitivity,
CCCCCCCCCC(=O)N[C@@H](Cc1c[nH]c2ccccc12)C(=O)N[C@H](CC(N)=O)C(=O)N[C@@H](CC(=O)O)C(=O)N[C@@H]1C(=O)NCC(=O)N[C@@H](CCCN)C(=O)N[C@@H](CC(=O)O)C(=O)N[C@H](C)C(=O)N[C@@H](CC(=O)O)C(=O)NCC(=O)N[C@H](CO)C(=O)N[C@@H]([C@H](C)CC(=O)O)C(=O)N[C@@H](CC(=O)c2ccccc2N)C(=O)O[C@@H]1C [Daptomycin],,did not reduce sensitivity,"MIC ([1]; S. aureus USA300 WT, Table S2): 2 µg/mL; MIC [2, 5]: 2 µg/mL"
CC[C@H]1OC(=O)[C@H](C)[C@@H](O[C@H]2C[C@@](C)(OC)[C@@H](O)[C@H](C)O2)[C@H](C)[C@@H](O[C@@H]2O[C@H](C)C[C@H](N(C)C)[C@H]2O)[C@](C)(O)C[C@@H](C)C(=O)[C@H](C)[C@@H](O)[C@]1(C)O [Erythromycin],> 64,did not reduce sensitivity,"MIC ([2]; Staphylococcus aureus, USA300): > 64 µg/mL"
COc1c(N2CCNC(C)C2)c(F)cc2c(=O)c(C(=O)O)cn(C3CC3)c12 (stereo not drawn) [Gatifloxacin],0.5,did not reduce sensitivity,
CNC(C)C1CCC(N)C(OC2C(N)CC(N)C(OC3OCC(C)(O)C(NC)C3O)C2O)O1 (stereo not drawn) [Gentamycin],1,did not reduce sensitivity,
CC(=O)NC[C@H]1CN(c2ccc(N3CCOCC3)c(F)c2)C(=O)O1 [Linezolid],4,did not reduce sensitivity,
CO[C@@H]1[C@@H](OC(N)=O)[C@@H](O)[C@H](Oc2ccc3c(O)c(NC(=O)c4ccc(O)c(CC=C(C)C)c4)c(=O)oc3c2C)OC1(C)C [Novobiocin],0.25,did not reduce sensitivity,
Cc1onc(-c2ccccc2)c1C(=O)N[C@@H]1C(=O)N2[C@@H]1SC(C)(C)[C@@H]2C(=O)O [Oxacillin],64,did not reduce sensitivity,
CO[C@H]1/C=C/O[C@@]2(C)Oc3c(C)c(O)c4c(O)c(c(/C=N/N5CCN(C)CC5)c(O)c4c3C2=O)NC(=O)/C(C)=C\C=C\[C@H](C)[C@H](O)[C@@H](C)[C@@H](O)[C@@H](C)[C@H](OC(C)=O)[C@@H]1C [Rifampicin],0.06,did not reduce sensitivity,
CN[C@H](CC(C)C)C(=O)N[C@H]1C(=O)N[C@@H](CC(N)=O)C(=O)N[C@H]2C(=O)N[C@H]3C(=O)N[C@H](C(=O)N[C@H](C(=O)O)c4cc(O)cc(O)c4-c4cc3ccc4O)[C@H](O)c3ccc(c(Cl)c3)Oc3cc2cc(c3O[C@@H]2O[C@H](CO)[C@@H](O)[C@H](O)[C@H]2O[C@H]2C[C@](C)(N)[C@H](O)[C@H](C)O2)Oc2ccc(cc2Cl)[C@H]1O [Vancomycin],,did not reduce sensitivity,"MIC ([1]; S. aureus USA300 WT, Table S2): 2 µg/mL; MIC [2, 5]: 1 µg/mL"
nisin,,,MIC [3]: 200 µg/mL; MIC [4]: 200 µg/mL
protamine,,,MIC [3]: 8 µg/mL; MIC [4]: 8 µg/mL

# — paper PMC5013292, “A Putative Bacterial ABC Transporter Circumvents the Essentiality of Signal Peptidase” (mBio, 2016)
